In brackets after ≈: the same amount, converted by molar mass. Numbered stars: 1 amine (or outer) side, 2 acyl side, 3 side chain; on linkers, the order of the positions; unused ones are H or OH. Square brackets hold non-standard residues; d marks the D form. Peptide text beside a SMILES is read from it. N(tridecyl)Gly = CCCCCCCCCCCCCNCC(=O)O; X1 = CC(c1ccccc1)N(CC(=O)[*:2])[*:1]; NFurfurylGly = O=C(O)CNCc1ccco1; Gly(N(CH2)3NH2) = NCCCNCC(=O)O; Nphe = O=C(O)CNCc1ccccc1; NPrGly = CCCNCC(=O)O; Nlys = NCCCCNCC(=O)O
Experiments:
C. albicans biofilm = assay: Fungal biofilm minimum inhibitory concentration assay (PrestoBlue); type: cell-based, Candida albicans
Procedure: The biofilm minimum inhibitory concentration (MIC) of peptoids against fungal pathogens C. albicans was determined following CLSI guidelines (CLSI. Reference method for broth dilution antifungal susceptibility testing of yeasts; approved standard-third edition; CLSI document M27 A3. Clinical and Laboratory Standards Institute, 2008). Colonies were transferred from a streaked YPD plate to 0.85% saline to reach an OD530 between 0.15 and 0.25. This inoculant was diluted 1:100 into RPMI-MOPS and then further diluted 1:20 into RPMI-MOPS. 200 μL of inoculant was seeded into each well of a 96 well black-walled plate. Plates were incubated overnight at 37° C. Media was gently removed and gently washed three times with PBS. RPMI-MOPS (198 μL) were added to each well. 2-fold serial dilutions of 100× peptoid solutions were prepared in water and 2 μL of peptoid were added to each well in triplicate then incubated at 37° C. for 24 hours. PRESTOBLUE (20 μL) was added to each well and incubated at 37° C. for one hour before measuring fluorescence on a SPECTRAMAX M5 plate reader (Ex. 555 nm; Em. 585 nm).

C. auris = assay: MIC assay, C. auris; type: cell-based, Candida auris
C. tropicalis = type: cell-based, Candida tropicalis
C. parapsilosis = type: cell-based, Candida parapsilosis
[1] = test system: human keratinocyte (HaCat) cells; assay: in vitro; type: cell-based
Procedure: (§1) The mammalian cell lines that were tested (HepG2, 3T3, and HaCat) were incubated with RMG9-11 for 72 hours and cell viability was determined via mitochondrial activity using an MTT reduction assay where viable cells reduce MTT to formazan. Toxicity is reported as the concentration of the peptoid that results in a 50% reduction in viable cells, termed toxicity dose 50% or TD50. […] SR is defined as the TD50 divided by MIC and provides a measure of the therapeutic window for a compound. Typically for most lead compounds that would continue through development and optimization, a SR of 10 is preferred while an SR of 100 is more desirable for a compound moving into preclinical animal model evaluation.
(§2) Hepatocellular carcinoma (HepG2), mouse fibroblast (3T3), and human keratinocyte (HaCat) cells were cultured in Dulbeco modified eagle media (DMEM) containing 10% fetal bovine serum (FBS) and 1% penicillin, streptomycin, and glutamine (PSG) at 37° C. and 5% CO2. Cells were collected and adjusted to […] to 4×10^5 cells/mL in phenol-red free DMEM and plated (100 μL) 96 well plates. 2-fold serial dilutions of 10× peptoid (11.1 μL) were added to each well in triplicate. Water (vehicle) was used as a negative control. Plates were incubated at 37° C. in 5% CO2 for 72 hours. Thiazolyl blue tetrazolium bromide (MTT) was added to each well (5 mg/mL; 20 μL) and incubated for 3 hours. Media was removed, DMSO (100 μL) was added, and plates were incubated at 37° C. for 10 minutes. Plates were read on a SPECTRAMAX M5 plate reader (Abs. 570 nm). The concentration of compound resulting in a 50% reduction in growth compared to control (toxicity dose 50%; TD50) was determined using GRAFIT. This procedure was repeated three times on separate days.

[2] = test system: mouse fibroblast (3T3) cells; assay: in vitro; type: cell-based
Procedure: as §1, §2

C. albicans ATCC 64124 = type: cell-based, Candida albicans; settings: resistant to amphotericin B, fluconazole, caspofungin, flucytosine
Source text: (§3) This screening led to the discovery of RMG9-11 (FIG. 2C). The minimum inhibitory concentration (MIC) of resynthesized RMG9-11 was initially determined against C. albicans, C. neoformans, and the ESKAPE bacteria via CSLI guidelines (CLSI. Methods for Dilution Antimicrobial Susceptibility Tests for Bacteria That Grow Aerobically, 11th Edition. Clinical and Laboratory Standards Institute (2018); CLSI. Reference method for broth dilution antifungal susceptibility testing of yeasts; approved standard-third edition; CLSI document M27-A3. Clinical and Laboratory Standards Institute (2008)). […] C. albicans clinical isolates include a reference strain (M1), fluconazole susceptible strains (M4 and M6), and fluconazole resistant strains (M2, M3, M5, and M7). ATCC 64124 is multidrug resistant C. albicans strain that is resistant to amphotericin B, fluconazole, caspofungin, and flucytosine. All MICs were performed under CSLI guidelines in triplicate on at least three different days.
(§4) The minimum inhibitory concentration (MIC) of peptoids against fungal pathogens C. albicans and C. neoformans was determined following CLSI guidelines (Reference method for broth dilution antifungal susceptibility testing of yeasts; approved standard-third edition; CLSI document M27-A3.” CLSI. 2008.). Colonies were transferred from a streaked YPD plate to 0.85% saline to reach an OD530 between 0.18 and 0.25. This inoculant was diluted 1:100 into RPMI-MOPS and then further diluted 1:20 into RPMI-MOPS. 198 μL of inoculant was seeded into each well of a 96 well black-walled plate. 2-fold serial dilutions of 100× peptoid solutions were prepared in water and 2 μL of peptoid were added to each well in triplicate. […] MIC was defined as the lowest concentration of compound preventing fungal growth. This assay was repeated 3 times on separate days with each compound.

C. albicans M1 = type: cell-based, Candida albicans; settings: reference strain
Source text: as §3, §4

C. albicans M2 = type: cell-based, Candida albicans; settings: fluconazole resistant strain
Source text: as §3, §4

C. albicans M3 = type: cell-based, Candida albicans; settings: fluconazole resistant strain
Source text: as §3, §4

C. albicans M4 = type: cell-based, Candida albicans; settings: fluconazole susceptible strain
Source text: as §3, §4

C. albicans M5 = type: cell-based, Candida albicans; settings: fluconazole resistant strain
Source text: as §3, §4

C. albicans M6 = type: cell-based, Candida albicans; settings: fluconazole susceptible strain
Source text: as §3, §4

C. albicans M7 = type: cell-based, Candida albicans; settings: fluconazole resistant strain
Source text: as §3, §4

C. albicans = type: cell-based, Candida albicans; settings: planktonic, 24 h, RPMI-MOPS
Source text: as §3, §4

[3] = test system: fluconazole resistant and susceptible strains of C. albicans; type: cell-based, Candida albicans; settings: regardless of fluconazole susceptibility
Source text: as §3, §4

Structure (SMILES): CCCCCCCCCCCCCNCC(=O)N(CCC)CC(=O)N(CC(=O)N(CCCCN)CC(=O)N(CC(=O)N(CC(=O)N(CCCN)CC(N)=O)Cc1ccccc1)Cc1ccco1)C(C)c1ccccc1 (stereo not shown) [RMG9-11] (H-[N(tridecyl)Gly][NPrGly][X1][Nlys][NFurfurylGly][Nphe][Gly(N(CH2)3NH2)]-NH2)
- increase of biofilm MIC compared to MIC (C. albicans biofilm; BMIC vs planktonic C. albicans MIC): 16 fold
- MIC C. albicans biofilm (BMIC) (C. albicans biofilm; established biofilm, 24 h): 100 µg/mL (≈ 95.8 µM)
- MIC C. auris (C. auris): 12.5 µg/mL (≈ 12 µM)
- MIC C. tropicalis (C. tropicalis): 3.13 µg/mL (≈ 3 µM)
- MIC C. parapsilosis (C. parapsilosis): 6.25 µg/mL (≈ 5.99 µM)
- TD50 HaCat [1]: 53 µg/mL
- toxicity at the MIC, HaCat [1]: minimal
- TD50 3T3 [2]: 39 µg/mL
- toxicity at the MIC, 3T3 [2]: minimal
- MIC C. albicans ATCC 64124 (C. albicans ATCC 64124): 6.25 µg/mL (≈ 5.99 µM)
- MIC C. albicans M1 (C. albicans M1): 6.25 µg/mL (≈ 5.99 µM)
- MIC C. albicans M2 (C. albicans M2): 12.5 µg/mL (≈ 12 µM)
- MIC C. albicans M3 (C. albicans M3): 12.5 µg/mL (≈ 12 µM)
- MIC C. albicans M4 (C. albicans M4): 12.5 µg/mL (≈ 12 µM)
- MIC C. albicans M5 (C. albicans M5): 12.5 µg/mL (≈ 12 µM)
- MIC C. albicans M6 (C. albicans M6): 6.25 µg/mL (≈ 5.99 µM)
- MIC C. albicans M7 (C. albicans M7): 6.25 µg/mL (≈ 5.99 µM)
- MIC C. albicans (C. albicans): 6.25 µg/mL (≈ 5.99 µM)
- MICs against fluconazole resistant and susceptible strains of C. albicans [3]: 6.25 to 12.5 µg/mL

Source: patent publication US20240391889A1, “ANTIMICROBIAL COMPOUNDS AND THE METHODS OF USE” (priority 2021, published 2024)
